Source: patent US10407454B2, “Defined enzymatic synthesis of lipid A analogs” (The Board of Trustees of the Leland Stanford Junior …, priority 2016, dated 2019)

Molecular target: T1, TLR4 (Homo sapiens, UniProt O00206+Q9Y6Y9)
T1 construct: endogenous in cells; host or cells: HUVEC
Test: TLR signaling assay: IL-6 release (ELISA) from LPS-stimulated HUVEC cells pretreated with Lipid IVA or analogs
Type: cell-based
Details: 1 hour pretreatment, then 100 ng/mL LPS, supernatant 18 hours after LPS, mean ± SD of triplicate wells (LPS only: 425 ± 7)
Method: Antagonistic Effect of Unsaturated Lipid IVA. To examine the antagonistic effect of the Lipid IVA analogues produced by our reconstituted system, products from sample 1-3 were assayed against LPS stimulated HUVEC microphage cell line. IL-6 level was measured as an indicator of TLR4 suppression. As a negative control, an in vitro reaction lacking acetyl-CoA was run and processed in parallel. Lipid IVA samples was quantified via mass spectrometry by comparing with a standard curve generated from synthetic Lipid IVA standard. […]
TLR Signaling Assays. HUVECs were grown to approximately 80% confluency in plastic 48-well cell culture plates. Six hours prior to the beginning the assay, medium was aspirated and replaced with 200 μL fresh medium per well. 100× stock dilutions of LPS (in sterile water) and Lipid IVa (in methanol) were freshly prepared from lyophilized solids. Cells were subjected to a 1-hour preincubation with the indicated amounts of Lipid IVa, or Samples 1, 2, or 3, and then LPS (100 ng/mL) was added. Aliquots of the culture supernatant were taken after 18 hours, frozen at −20 C, and then analyzed for IL-6 using a commercial ELISA kit following the manufacturer's (eBioSciences) recommended protocol.

T1 sequence (O00206 24-839): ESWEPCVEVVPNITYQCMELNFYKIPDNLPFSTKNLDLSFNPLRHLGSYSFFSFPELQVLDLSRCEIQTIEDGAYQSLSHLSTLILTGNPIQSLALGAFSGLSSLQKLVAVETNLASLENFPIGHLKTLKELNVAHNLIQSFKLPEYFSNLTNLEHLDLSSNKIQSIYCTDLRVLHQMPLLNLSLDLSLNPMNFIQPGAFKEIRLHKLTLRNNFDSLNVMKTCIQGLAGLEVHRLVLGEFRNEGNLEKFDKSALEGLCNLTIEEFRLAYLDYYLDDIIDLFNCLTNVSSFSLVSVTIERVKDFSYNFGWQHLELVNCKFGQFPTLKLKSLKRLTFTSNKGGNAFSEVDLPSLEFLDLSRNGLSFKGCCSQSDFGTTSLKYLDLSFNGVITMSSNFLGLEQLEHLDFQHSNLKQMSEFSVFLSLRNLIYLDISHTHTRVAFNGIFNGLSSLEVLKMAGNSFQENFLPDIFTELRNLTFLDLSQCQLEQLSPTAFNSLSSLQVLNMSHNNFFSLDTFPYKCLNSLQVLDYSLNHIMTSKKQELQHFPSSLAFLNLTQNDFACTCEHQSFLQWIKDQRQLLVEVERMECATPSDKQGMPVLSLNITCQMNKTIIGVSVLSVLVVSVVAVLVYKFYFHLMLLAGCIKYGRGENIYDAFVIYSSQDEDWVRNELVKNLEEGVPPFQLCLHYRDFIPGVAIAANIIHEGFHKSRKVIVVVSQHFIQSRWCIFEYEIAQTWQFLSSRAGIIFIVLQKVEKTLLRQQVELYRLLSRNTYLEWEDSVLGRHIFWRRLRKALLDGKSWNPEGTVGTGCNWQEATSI
T1 sequence (Q9Y6Y9 19-160): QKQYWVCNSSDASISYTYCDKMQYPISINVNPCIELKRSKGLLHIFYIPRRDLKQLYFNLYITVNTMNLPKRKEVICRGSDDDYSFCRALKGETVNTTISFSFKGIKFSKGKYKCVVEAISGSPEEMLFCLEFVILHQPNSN

Compound: CCCCCCCCCCC[C@@H](O)CC(=O)N[C@H]1[C@H](OC[C@H]2O[C@H](OP(=O)(O)O)[C@H](NC(=O)C[C@H](O)CCCCCCCCCCC)[C@@H](OC(=O)C[C@H](O)CCCCCCCCCCC)[C@@H]2O)O[C@H](CO)[C@@H](OP(=O)(O)O)[C@@H]1OC(=O)C[C@H](O)CCCCCCCCCCC [Lipid IVA]
- [IL-6] (pg/mL) in HUVEC culture supernatant (10 ng/mL compound): 484 ± 25 pg/mL
- [IL-6] (pg/mL) in HUVEC culture supernatant (100 ng/mL compound): 212 ± 33 pg/mL
- [IL-6] (pg/mL) in HUVEC culture supernatant (500 ng/mL compound): 57 ± 3 pg/mL
